Assay results taken from ChEMBL document CHEMBL1154435, “Synthesis and anti-inflammatory activity evaluation of unsymmetrical selenides” (Eur J Med Chem, 2008).

Key:
Rattus norvegicus [1] = test: Antiinflammatory activity against cotton pellets-induced inflammation in Wistar rat assessed as dry weight of granuloma at 10 mg/kg, po after 7 days; assay type: functional
Rattus norvegicus [2] = test: Antiinflammatory activity against cotton pellets-induced inflammation in Wistar rat assessed as final weight of granuloma at 10 mg/kg, po after 7 days; assay type: functional
Mus musculus [3] = test: Safety ratio for toxicity to antiinflammatory activity in po dosed mouse; assay type: functional
[4] = Acute toxicity in po dosed mouse assessed as death within 7 days; assay type: organism-based; conditions: in vivo
Rattus norvegicus [5] = test: Antiinflammatory activity against cotton pellets-induced inflammation in Wistar rat assessed as wet weight of granuloma at 10 mg/kg, po after 7 days; assay type: functional
Mus musculus [6] = test: Acute toxicity in mouse assessed as occurrence of ataxia and respiratory problems at 600 mg/kg, po within 7 days; assay type: organism-based; set-up: dose 600 mg/kg, route oral; conditions: in vivo, 168 h
Rattus norvegicus [7] = test: Antiinflammatory activity against cotton pellets-induced inflammation in Wistar rat assessed as dry weight of granuloma at 5 mg/kg, po after 7 days; assay type: functional
Rattus norvegicus [8] = test: Antiinflammatory activity against cotton pellets-induced inflammation in Wistar rat assessed as wet weight of granuloma at 5 mg/kg, po after 7 days; assay type: functional
Rattus norvegicus [9] = test: Antiinflammatory activity against cotton pellets-induced inflammation in Wistar rat assessed as final weight of granuloma at 5 mg/kg, po after 7 days; assay type: functional

For `O=C(O)C[Se]c1ccccc1C(=O)O`, the Activity (Rattus norvegicus [1]) was 0.085 g, the Activity (Rattus norvegicus [2]) was 33.8 mg and the Ratio (Mus musculus [3]) was “>=60”. The LD50 at 168 h [4] was greater than 600 mg/kg and the Activity (Rattus norvegicus [5]) was 0.378 g.

With `C#CC[Se]c1ccccc1C(=O)O` the Activity (Mus musculus [6]) was “Toxic”, the Activity (Rattus norvegicus [1]) was 0.081 g and the Activity (Rattus norvegicus [2]) was 30.9 mg. The Ratio (Mus musculus [3]) was “>=60”, the LD50 at 168 h [4] was 600 mg/kg and the Activity (Rattus norvegicus [5]) was 0.353 g.

For `C#CC[Se]c1ccc(C(=O)NC)cc1`, the Activity (Rattus norvegicus [1]) was 0.096 g, the Activity (Rattus norvegicus [2]) was 41.3 mg and the Ratio (Mus musculus [3]) was “>=60”. The LD50 at 168 h [4] was greater than 600 mg/kg and the Activity (Rattus norvegicus [5]) was 0.447 g.

In the case of `CNC(=O)c1ccc([Se]C=C(C)C)cc1`, the Activity (Mus musculus [6]) is reported as “Toxic”, the Activity (Rattus norvegicus [1]) is reported as 0.087 g and the Activity (Rattus norvegicus [2]) is reported as 33.2 mg. For the same compound, the Ratio (Mus musculus [3]) was “>=60”, the LD50 at 168 h [4] was 600 mg/kg and the Activity (Rattus norvegicus [5]) was 0.369 g.

With `CC(C)=C[Se]c1ccccc1C(=O)O` the Activity (Rattus norvegicus [1]) was 0.084 g, the Activity (Rattus norvegicus [2]) was 32.8 mg and the Ratio (Mus musculus [3]) was “>=60”. For the same compound, the LD50 at 168 h [4] was greater than 600 mg/kg and the Activity (Rattus norvegicus [5]) was 0.406 g.

In the case of `CNC(=O)c1ccc([Se]Cc2ccccc2)cc1`, the Activity (Rattus norvegicus [1]) is reported as 0.089 g, the Activity (Rattus norvegicus [2]) is reported as 35.7 mg and the Ratio (Mus musculus [3]) is reported as “>=60”. The LD50 at 168 h [4] was greater than 600 mg/kg and the Activity (Rattus norvegicus [5]) was 0.414 g.

With `COc1ccc2c(c1)c(CC(=O)O)c(C)n2C(=O)c1ccc(Cl)cc1` [INDOMETHACIN] the Activity (Rattus norvegicus [7]) was 0.072 g, the Activity (Rattus norvegicus [8]) was 0.307 g and the Ratio (Mus musculus [3]) was 3.3. For the same compound, the LD50 at 168 h [4] was 33 mg/kg and the Activity (Rattus norvegicus [9]) was 21.8 mg.
